This is an account of results in publication PMC7138307 (PLoS ONE, 2020).

The target of assay [1] is T1, CaMK1a (Mus musculus, UniProt Q91YS8).
T1 construct: from tissue; host or cells: mouse cortical brain lysate
In words: Ex vivo KiNativ ATP/ADP probe competition in mouse cortical brain lysates. The assay is classed as binding.

Assay [2] deals with CK1d, CK1e. Described as above. It counts as binding. Particulars: DVKPDNFLMGLGKK; Lys2; ATP probe.
The target in assay [3] is T2, MLK2 (Mus musculus, UniProt Q66L42).
T2 construct: from tissue; host or cells: mouse cortical brain lysate
T2 sequence (Q66L42 whole entry): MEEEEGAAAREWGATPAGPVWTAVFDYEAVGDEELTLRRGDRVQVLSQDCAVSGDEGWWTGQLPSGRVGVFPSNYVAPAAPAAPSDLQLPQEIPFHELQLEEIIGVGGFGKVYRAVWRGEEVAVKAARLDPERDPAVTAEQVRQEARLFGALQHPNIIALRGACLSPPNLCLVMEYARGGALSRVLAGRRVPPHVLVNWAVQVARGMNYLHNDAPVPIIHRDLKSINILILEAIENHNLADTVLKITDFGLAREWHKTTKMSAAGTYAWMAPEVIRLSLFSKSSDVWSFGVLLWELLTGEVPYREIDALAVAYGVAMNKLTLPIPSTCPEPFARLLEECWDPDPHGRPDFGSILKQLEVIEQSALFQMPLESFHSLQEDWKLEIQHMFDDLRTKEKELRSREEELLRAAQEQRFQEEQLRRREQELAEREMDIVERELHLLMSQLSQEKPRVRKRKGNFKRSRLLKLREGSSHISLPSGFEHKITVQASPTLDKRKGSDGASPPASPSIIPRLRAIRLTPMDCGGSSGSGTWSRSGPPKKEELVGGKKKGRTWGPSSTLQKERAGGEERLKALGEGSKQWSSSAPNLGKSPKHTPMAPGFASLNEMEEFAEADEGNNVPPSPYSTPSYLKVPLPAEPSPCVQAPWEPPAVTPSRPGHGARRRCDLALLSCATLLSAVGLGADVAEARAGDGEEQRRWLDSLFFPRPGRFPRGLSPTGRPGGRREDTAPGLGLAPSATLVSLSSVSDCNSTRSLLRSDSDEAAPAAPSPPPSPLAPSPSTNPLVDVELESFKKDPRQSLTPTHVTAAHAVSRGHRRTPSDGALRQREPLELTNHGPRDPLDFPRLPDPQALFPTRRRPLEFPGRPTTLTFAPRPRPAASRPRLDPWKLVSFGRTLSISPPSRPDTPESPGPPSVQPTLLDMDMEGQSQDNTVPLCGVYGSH
The assay is described as above. The assay is classed as binding. Particulars: DLKSINILILEAIENHNLADTVLK; Lys2; ATP probe.

In assay [4] the target is T3, PITSLRE (Mus musculus, UniProt P24788).
T3 construct: from tissue; host or cells: mouse cortical brain lysate
T3 sequence (P24788 1-784): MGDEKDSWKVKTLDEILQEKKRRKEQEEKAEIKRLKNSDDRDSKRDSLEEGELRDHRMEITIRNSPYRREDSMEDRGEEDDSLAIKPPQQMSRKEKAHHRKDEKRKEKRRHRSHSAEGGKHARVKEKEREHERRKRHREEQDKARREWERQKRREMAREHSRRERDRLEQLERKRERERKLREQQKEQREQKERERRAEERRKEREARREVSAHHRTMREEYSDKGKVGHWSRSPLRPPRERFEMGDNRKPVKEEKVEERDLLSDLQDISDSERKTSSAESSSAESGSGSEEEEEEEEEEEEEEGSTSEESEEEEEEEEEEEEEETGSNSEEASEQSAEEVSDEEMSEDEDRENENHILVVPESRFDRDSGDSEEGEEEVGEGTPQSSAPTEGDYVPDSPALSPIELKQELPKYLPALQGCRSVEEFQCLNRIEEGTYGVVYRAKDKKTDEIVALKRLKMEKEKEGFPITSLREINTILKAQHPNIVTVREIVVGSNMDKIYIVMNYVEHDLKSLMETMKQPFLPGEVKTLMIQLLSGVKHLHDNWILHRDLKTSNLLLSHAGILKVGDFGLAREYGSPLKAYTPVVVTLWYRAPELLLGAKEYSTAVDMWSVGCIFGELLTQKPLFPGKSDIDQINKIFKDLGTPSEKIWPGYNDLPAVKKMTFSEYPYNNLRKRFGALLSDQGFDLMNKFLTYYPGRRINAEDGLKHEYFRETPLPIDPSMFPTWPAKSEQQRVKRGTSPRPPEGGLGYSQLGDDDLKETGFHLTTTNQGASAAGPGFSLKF
The description is as above. Particulars: DLKTSNLLLSHAGILK; Lys2; ATP probe. The assay is classed as binding.

Assay [5] relates to tau phosphorylation. The experiment in a line: Isoflurane induced hypothermia tau phosphorylation in C57Bl/6 mice (western blot of cortex). It counts as in vivo, mouse. An excerpt:
Under basal conditions, tau phosphorylation is tightly regulated by opposing kinase and phosphatase activities. In mice, isoflurane induced hypothermia causes a dramatic increase in tau phosphorylation through the temperature dependent inhibition of PP2A [40]. In the current experiment, we used isoflurane induced hypothermia in C57Bl/6 mice to increase tau phosphorylation in order to test the effects of TTBK1 inhibition. By using wild-type mice we ensured that both the levels of tau and tau kinases were at endogenous levels. […] Based on our in vitro potency assays and pharmacokinetic parameters, the highest dose used (75 mg/kg) was projected to achieve an IC80 of TTBK1 inhibition for the one hour of hypothermia treatment (S3 Fig). […] This further confirms that S422, a site implicated in the early stages of neurofibrillary tangle formation in disease, is likely solely phosphorylated by TTBK1 in the brain.
Fig 6 Acute TTBK1 inhibition reduces tau phosphorylation at disease relevant sites in vivo. […] Phosphorylation signal was normalized to the level of total tau in each sample. Data is represented as the mean +/- SEM. For each phospho-epitope, treatment significance was determined first by one-way ANOVA between all groups; For each dose group, Tukey’s comparison was used to determine significance versus the Vehicle treated control. (B) Correlation within each brain sample between the level of tau phosphorylation at S422 and the measured concentration of free drug (R^2 = 0.4254; p = 0.0569).
Samples were lysed in Pierce RIPA lysis and extraction buffer (Thermo Fisher Scientific, Waltham, MA) supplemented with 1% Halt protease and phosphatase inhibitor cocktail (Thermo Fisher Scientific, Waltham, MA) and centrifuged at 14000 x g for 20 min at 4°C to clear the lysate. Protein concentrations were determined using the Direct Detect Infrared Spectrometer (EMD Millipore Corp., Burlington, MA) and 10μg of each sample was denatured in 6X SDS sample buffer (Boston Bioproducts, Ashland, MA) for 7 minutes at 90°C. Proteins were loaded into a Criterion 7.5% tris-glycine gel (Bio-Rad, Hercules, CA) and separated by SDS-PAGE at 120V for 120 minutes. The gel was transferred to an IBlot2 nitrocellulose membrane (Invitrogen, Carlsbad, CA), blocked with TBST blocking buffer (Li-cor Biosciences, Lincoln, NE) for 1 hour, and washed three times with TBST. The membrane was probed with primary antibodies (1:1000 dilution) in antibody dilution buffer (1:1 TBST blocking buffer and 1X TBST) overnight at 4°C. The following antibodies were used for immunoblotting: TTBK1 (Cat# PA5-20686, Invitrogen, Carlsbad, CA), Tau-5 (Cat# ab80579, Abcam, Cambridge, UK), phospho-Tau S422 (Cat# ab79415, Abcam, Cambridge, UK), S198 (Cat# ab79540, Abcam, Cambridge, UK), AT8 S202/T205 (Cat# MN1020, Invitrogen, Carlsbad, CA), S214 (Cat# ab170892, Abcam, Cambridge, UK), AT180 T231 (Cat# MN1040, Invitrogen, Carlsbad, CA), S262 (Cat# ab131354, Abcam, Cambridge, UK), S356 (Cat# ab75603, Abcam, Cambridge, UK), S396 (Cat# ab109390, Abcam, Cambridge, UK), GAPDH (Cat# 5174S, Cell Signaling Technology, Danvers, MA), and β-actin (Cat# 926–42212, Li-cor Biosciences, Lincoln, NE). The blot was then washed in triplicate with TBST and incubated for 1 hour with secondary antibody (1:10,000 dilution of IRDye 800 anti-mouse IgG and IRDye 680 anti-rabbit IgG, Li-cor Biosciences, Lincoln, NE) in antibody dilution buffer. After a final triplicate wash with TBST, the blot was visualized using the Odyssey CLx imaging system (Li-cor Biosciences, Lincoln, NE).
Seven-week-old male C576Bl/6 mice were used for all hypothermia experiments (Charles River Laboratories, Wilmington, MA). Hypothermia was induced by exposure to vaporized isoflurane in an anesthetic induction chamber attached to a V-1 Tabletop Anesthesia System (VetEquip, Inc., Livermore, CA). The mice remained in the chamber for 60 minutes with a constant isoflurane concentration of 2%. […]

“Also recorded” adds a separate entry of the source.

T1 sequence (Q91YS8 whole entry): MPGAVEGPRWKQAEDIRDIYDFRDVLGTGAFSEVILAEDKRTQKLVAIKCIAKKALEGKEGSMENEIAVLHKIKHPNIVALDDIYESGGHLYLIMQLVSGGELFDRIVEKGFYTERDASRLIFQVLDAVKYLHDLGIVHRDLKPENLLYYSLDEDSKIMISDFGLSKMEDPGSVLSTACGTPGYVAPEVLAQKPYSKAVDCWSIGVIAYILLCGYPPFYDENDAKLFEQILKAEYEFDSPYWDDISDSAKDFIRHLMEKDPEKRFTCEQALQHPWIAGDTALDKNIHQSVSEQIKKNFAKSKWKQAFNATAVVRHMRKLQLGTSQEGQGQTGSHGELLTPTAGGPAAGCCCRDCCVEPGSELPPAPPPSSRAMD

As for `CCC(C)(O)C#Cc1cc2c(ccn2-c2ccnc(N)n2)cn1` (stereo not shown) [BIIB-TTBK1i], the “Percent Inhibition at 1μM” value in assay [1] (DLKPENLLYYSLDEDSK, Lys2, ADP probe) is on record as 64.7%; in assay [1] (DLKPENLLYYSLDEDSK, Lys2, ATP probe) it was 63.8%; in assay [1] (LVAIKCIAK, Lys1, ADP probe), 69.3%; in assay [1] (LVAIKCIAK, Lys1, ATP probe) it was 69.2%; in assay [2], 55.5%; in assay [3], 60.1%. In addition, the “Percent Inhibition at 1μM” value in assay [4] was 63.3%. Moreover, in assay [5] (25mg/kg I.P., one hour, p = 0.0213 vs Vehicle), the “average reduction in tau phosphorylation at S422” value was determined as 60%. Moreover, the “hypothermia induced tau phosphorylation at S422” value in assay [5] (50mg/kg I.P., one hour, p = 0.0005 vs Vehicle) was “completely restored to basal levels; also recorded: complete reversal”; in assay [5] (75mg/kg I.P., one hour, p = 0.0007 vs Vehicle), “completely restored to basal levels; also recorded: significant decrease”. The “tau phosphorylation at AT180 (Thr231)” value in assay [5] (75mg/kg I.P. p = 0.0002 vs Vehicle (50mg/kg p = 0.0005; 25mg/kg p = 0.0571)) is “significant decrease”. Further, in assay [5] (75mg/kg I.P. p = 0.0002 vs Vehicle (50mg/kg p = 0.011; 25mg/kg p = 0.8492)), the “tau phosphorylation at S396” value is reported as “significant decrease”. Further, in assay [5] (75mg/kg I.P. p = 0.0066 vs Vehicle (50mg/kg p = 0.5391; 25mg/kg p>0.999)), the “tau phosphorylation at AT8 (S202/T205)” value is on record as “significant decrease”.
